A value given as a limit tells only on which side of the number the result lay.

Terminally biotinylated beta-amyloid (Aβ42), sequence (P05067 672-713, species assumed): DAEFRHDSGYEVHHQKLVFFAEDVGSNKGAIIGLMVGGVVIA

This assay addresses Terminally biotinylated beta-amyloid (Aβ42) (Homo sapiens, UniProt P05067). The assay is described as follows: Aβ42 biotinylated (biotin-AB) oligomerization assay, NeutrAvidin capture ELISA. The format is biochemical. Particulars: approximate value; 1 hr oligomerization at room temperature; read-out: IC50 Aβ 42-bio. As for the experimental part:
Aβ42 Biotinylated Assay Terminally biotinylated beta-amyloid (biotin-AB) was dissolved in HFIP at the concentration of 1 mg/ml and aliquoted to 50 μl/tube in 0.65 ml colored microfuge tubes (Fisher 02-681-248). The aliquots were diluted immediately by adding 450 μl of HFIP to 0.1 mg/ml. Approximately 46 ul (containing approximately 4.6 ug of biotin-AB) were taken from a tube, 100 ul of HFIP added, vortexed, and dried to a thin film under an N2 stream. 100 μl of trifluoroacetic acid (TFA) was added and vortexed. After 10 minute incubation at room temperature in a hood, resulting in disaggregation of seeds, the sample was vortexed again and dried again to a thin film under an N2 stream. 100 μl of HFIP was added, mixed, and the biotin-AB sample was dried for a third time under an N2 stream to remove residual TFA. The treated biotin-AB was dissolved in DMSO to a final peptide concentration of […] (SOX). An ELISA “capture” plate (Costar 9018) was coated with 50 μl of 1 μg/ml NeutrAvidin™ (NA) in 10 mM sodium phosphate buffer, pH 7.5. (NeutrAvidin can be prepared as 1 mg/ml (1000×) in milliQ water/10% glycerol and stored at −80° C. before use.) The plate was sealed plate with adhesive film and stored at 4° C. overnight, then blocked for 2 hours (unsealed) at room temperature with 200 μl/well OFB+0.1% v/v Tween 20. The “capture” plate was allowed to come to room temperature. Several dilutions of test compound were prepared with 100% DMSO, according to the desired concentration to be tested. 2.5 μl of diluted test compound was pipetted into the bottom of each well of a 96-well “dilution” polypropylene plate (Costar 3365), to which was added 250 ul of Oligomer Formation Buffer (OFB: 20 mM sodium phosphate, pH 7.5-150 mM NaCl). To begin oligomerization, 2 μl/well of the biotin-AB was added to the bottom of each well of a 96-well “reaction” polypropylene plate (Costar 3365) and 100 ul of each well of the “dilution” plate was transferred to the “reaction” plate (final concentration of DMSO being up to 1%). The reaction plate was sealed and incubated for 1 hr at room temperature without shaking. The reaction was then stopped by the addition of 50 ul of 0.3% Tween 20 in water. The “capture” plate blocking solution was removed, and 50 ul of each well of the “reaction” plate was transferred to each well of the “capture” plate. The “capture” plate was sealed and incubated for 2 hours at room temperature with shaking at 150 rpm. The “capture” plate was then washed on a plate washer (3×) with 200 ul/well TBST (20 mM Tris-HCL, pH 7.5/150 mM NaCl/0.1% Tween 20). 50 ul of Streptavidin-horseradish […] (1:20,000 dilution) in OFB+0.1% Tween 20 was added to each well, the “capture” plate was sealed and incubated for 1 hr with shaking at 150 rpm. As before, the plate was washed, then 100 ul of TMB/H2O2 substrate solution was added to each well. After 5-10 minutes, 100 ul of 1% v/v sulfuric acid was added and the absorbance of each well was read at 450 nm using a standard plate reader. Data is summarized in the table below; numbers given in parenthesis for the Aβ 40 Thioflavin T assays are the values in that particular experiment for compound ID 1027, given as the first entry in this table for structural comparison. “IC50 Aβ42-bio” column refers to the approximate value of the Aβ42 biotinylated assay IC50 in micromoles/L.
A general note: In an ELISA, binding on a coated surface is turned into a signal by an enzyme label.
For orientation: IC50 means the concentration that inhibits the measured activity by half. On to `OC(c1ccnc(-c2cc(N3CC(CN4CCCC4)C3)c3nonc3c2)c1)C(F)(F)F` (stereo not shown) [compound 1587, 2,2,2-trifluoro-1-(2-(7-(3-(pyrrolidin-1-ylmethyl)azetidin-1-yl)benzo[c][1,2,5]oxadiazol-5-yl)pyridin-4-yl)ethan-1-ol], for which the half-inhibitory concentration (IC50) amounted to 12.3 µM.

Regarding `Fc1cc(F)cc(-c2cc(N3CC(CN4CCOCC4)C3)c3nonc3c2)c1` [compound 1588, 6-(3,5-difluorophenyl)-4-(3-(morpholinomethyl)azetidin-1-yl) benzo[c][1,2,5]oxadiazole], the IC50 amounted to 30.2 µM.

`OCc1ccc(-c2cc(N3CC(CN4CCOCC4)C3)c3nonc3c2)cc1` [compound 1592]: the IC50 was determined as 15.1 µM.

In the case of `OCc1cnc(-c2cc(N3CC(CN4CCOCC4)C3)c3nonc3c2)s1` [compound 1594], the IC50 was > 20 µM.

Regarding `OC(c1cnc(-c2cc(N3CC(CN4CCCC4)C3)c3nonc3c2)s1)C(F)(F)F` (stereo not shown) [compound 1597], the IC50 worked out at 7.5 µM.

Take `OCc1cccc(-c2cc(N3CC(CN4CCOCC4)C3)c3nonc3c2)c1` [compound 1598]: the IC50 came out at 9.9 µM.

As to `OCc1coc(-c2cc(N3CC(CN4CCOCC4)C3)c3nonc3c2)n1` [compound 1606, (2-(7-(3-(morpholinomethyl)azetidin-1-yl)benzo[c][1,2,5]oxadiazol-5-yl)oxazol-4-yl)methanol], the IC50 is > 20 µM.

In the case of `OCc1cnc(-c2cc(N3CC(CN4CCOCC4)C3)c3nonc3c2)o1` [compound 1607, (2-(7-(3-(morpholinomethyl)azetidin-1-yl)benzo[c][1,2,5]oxadiazol-5-yl)oxazol-5-yl)methanol], the IC50 was > 20 µM.

Regarding `OC(c1coc(-c2cc(N3CC(CN4CCOCC4)C3)c3nonc3c2)n1)C(F)(F)F` (stereo not shown) [compound 1608, 2,2,2-trifluoro-1-(2-(7-(3-(morpholinomethyl)azetidin-1-yl)benzo[c][1,2,5]oxadiazol-5-yl)oxazol-4-yl)ethan-1-ol], the IC50 amounted to 8.6 µM.

Consider `NC(=O)c1cccc(-c2cc(N3CC(CN4CCCC4)C3)c3nonc3c2)c1` [compound 1609, 3-(7-(3-(pyrrolidin-1-ylmethyl)azetidin-1-yl)benzo[c][1,2,5]oxadiazol-5-yl)benzamide], for which the IC50 turned out to be 2.4 µM.

With `NC(=O)c1ccc(-c2cc(N3CC(CN4CCOCC4)C3)c3nonc3c2)cc1` [compound 1610, 4-(7-(3-(morpholinomethyl)azetidin-1-yl)benzo[c][1,2,5]oxadiazol-5-yl)benzamide], the IC50 is > 20 µM.

With `COc1cc(N2CC(CN3CCOCC3)C2)c2nonc2c1` [compound 1611, 6-methoxy-4-(3-(morpholinomethyl)azetidin-1-yl)benzo[c][1,2,5]oxadiazole], the IC50 is > 20 µM.

Turning to `CSc1cc(N2CC(CN3CCOCC3)C2)c2nonc2c1` [compound 1612, 6-(methylthio)-4-(3-(morpholinomethyl)azetidin-1-yl) benzo[c][1,2,5]oxadiazole], the IC50 is > 20 µM.

Turning to `COc1cc(N2CC(CN3CCOCC3)C2)c2nonc2c1C` [compound 1613, 5-methoxy-4-methyl-7-(3-(morpholinomethyl)azetidin-1-yl)benzo[c][1,2,5]oxadiazole], the concentration for half-maximal inhibition (IC50) was > 20 µM.

On to `CN(C)C(=O)c1ccccc1-c1cc(N2CC(CN3CCOCC3)C2)c2nonc2c1` [compound 1615], for which the IC50 is > 20 µM.

Regarding `CC(C)(O)c1ccc(-c2cc(N3CC(CN4CCOCC4)C3)c3nonc3c2)cc1` [compound 1616], the IC50 was 16.2 µM.

With `CC(C)(O)c1cccc(-c2cc(N3CC(CN4CCOCC4)C3)c3nonc3c2)c1` [compound 1617], the IC50 was determined as 14.6 µM.

Take `OC(c1ccc(-c2cc(N3CC(CN4CCOCC4)C3)c3nonc3c2)cn1)C(F)(F)F` (stereo not shown) [compound 1618, 2,2,2-trifluoro-1-(5-(7-(3-(morpholinomethyl)azetidin-1-yl)benzo[c][1,2,5]oxadiazol-5-yl)pyridin-2-yl)ethan-1-ol]: the IC50 amounted to 4.98 µM.

As to `OC(c1cccc(-c2cc(N3CC(CN4CCOCC4)C3)c3nonc3c2)n1)C(F)(F)F` (stereo not shown) [compound 1619, 2,2,2-trifluoro-1-(6-(7-(3-(morpholinomethyl)azetidin-1-yl)benzo[c][1,2,5]oxadiazol-5-yl)pyridin-2-yl)ethan-1-ol], the IC50 turned out to be 11.3 µM.

Turning to `OC(c1ccnc(-c2cc(N3CC(CN4CCOCC4)C3)c3nonc3c2)c1)C(F)(F)F` (stereo not shown) [compound 1620, 2,2,2-trifluoro-1-(2-(7-(3-(morpholinomethyl)azetidin-1-yl)benzo[c][1,2,5]oxadiazol-5-yl)pyridin-4-yl)ethan-1-ol], the IC50 is 11.1 µM.

Regarding `OC(c1cncc(-c2cc(N3CC(CN4CCOCC4)C3)c3nonc3c2)c1)C(F)(F)F` (stereo not shown) [compound 1621, 2,2,2-trifluoro-1-(5-(7-(3-(morpholinomethyl)azetidin-1-yl)benzo[c][1,2,5]oxadiazol-5-yl)pyridin-3-yl)ethan-1-ol], the IC50 came to 16.7 µM.

As for `OC(c1ccc(-c2cc(N3CC(CN4CCOCC4)C3)c3nonc3c2)nc1)C(F)(F)F` (stereo not shown) [compound 1622, 2,2,2-trifluoro-1-(6-(7-(3-(morpholinomethyl)azetidin-1-yl)benzo[c][1,2,5]oxadiazol-5-yl)pyridin-3-yl)ethan-1-ol], the IC50 was determined as 5.8 µM.

`OC(c1cnc(-c2cc(N3CC(CN4CCOCC4)C3)c3nonc3c2)s1)C(F)(F)F` (stereo not shown) [compound 1625]: the IC50 was 4.2 µM.

As to `OC(c1csc(-c2cc(N3CC(CN4CCOCC4)C3)c3nonc3c2)n1)C(F)(F)F` (stereo not shown) [compound 1626], the IC50 worked out at 10.9 µM.

Regarding `OC(c1nc(-c2cc(N3CC(CN4CCOCC4)C3)c3nonc3c2)cs1)C(F)(F)F` (stereo not shown) [compound 1627], the IC50 was 10.4 µM.

For the compound `CC(C)(O)c1nc(-c2cc(N3CC(CN4CCOCC4)C3)c3nonc3c2)no1` [compound 1628], the IC50 came out at 33.1 µM.

In the case of `OCc1nc(-c2cc(N3CC(CN4CCOCC4)C3)c3nonc3c2)no1` [compound 1629], the IC50 is 15.7 µM.

`OC(c1ccncc1-c1cc(N2CC(CN3CCOCC3)C2)c2nonc2c1)C(F)(F)F` (stereo not shown) [compound 1636, 2,2,2-trifluoro-1-(3-(7-(3-(morpholinomethyl)azetidin-1-yl)benzo[c][1,2,5]oxadiazol-5-yl)pyridin-4-yl) ethan-1-ol]: the IC50 came to 10.3 µM.

Regarding `OC1(c2cccc(-c3cc(N4CC(CN5CCOCC5)C4)c4nonc4c3)c2)COC1` [compound 1638], the IC50 came to 3 µM.

As to `OC1(c2ccc(-c3cc(N4CC(CN5CCOCC5)C4)c4nonc4c3)cc2)COC1` [compound 1639], the IC50 was found to be 3.2 µM.

As to `FC(F)(F)c1nc(-c2cc(N3CC(CN4CCOCC4)C3)c3nonc3c2)no1` [compound 1643, 4-(3-(morpholinomethyl)azetidin-1-yl)-6-(5-(trifluoromethyl)-1,2,4-oxadiazol-3-yl)benzo[c][1,2,5]oxadiazole], the IC50 turned out to be 14.2 µM.

Consider `CC(C)(O)/C=C/c1cc(N2CC(CN3CCOCC3)C2)c2nonc2c1` [compound 1645, (E)-2-methyl-4-(7-(3-(morpholinomethyl)azetidin-1-yl)benzo[c][1,2,5]oxadiazol-5-yl)but-3-en-2-ol], for which the half-maximal inhibitory concentration (IC50) is > 20 µM.

In the case of `Cn1ncc(-c2cc(N3CC(CN4CCOCC4)C3)c3nonc3c2)c1C(O)C(F)(F)F` (stereo not shown) [compound 1647], the IC50 is 14.7 µM.

Turning to `Cn1ncc(C(O)C(F)(F)F)c1-c1cc(N2CC(CN3CCOCC3)C2)c2nonc2c1` (stereo not shown) [compound 1651], the IC50 is 30.1 µM.

These data come from patent US9938249B2, “Anti-amyloid compounds containing benzofurazan” (Treventis Corporation, priority 2014, dated 2018).
